Test results: patent publication US8937086B2, “Compounds for the treatment of pathologies associated with aging and degenerative disorders” (University of Pittsburgh—Of the Commonwealth System of …, priority 2008, dated 2015)
“Also recorded” adds a separate entry of the source.

Assays:
[1] = Body weight / tolerability in treated Ercc1-/Δ mice; assay type: in vivo, mouse; conditions: FIG. 11A-B; weight versus time
Experimental: FIG. 11A-B. Weights as a function of age of (A) male and (B) female Ercc1^−/Δ mice either treated with XJB-5-131 or vehicle (sunflower seed oil) according to the protocol shown in FIG. 7.
(§1) To assess the effectiveness of XJB-5-131 in inhibiting degeneration and/or signs of aging and age-related degenerative diseases, the compound was administered, over a 18-21 week period, to progeroid Ercc1^−/Δ mice, at a dose of 2 mg/kg in sunflower seed oil carrier (to promote solubility) administered intraperitoneally three times per week (FIG. 7). Sunflower seed oil was administered to twin Ercc1^−/Δ mice according to the same schedule as a control. The treated and control mice were monitored twice a week for weight and symptom/sign development.
(§2) To assess the impact of XJB-5-131 at a cellular level, a number of experiments were carried out using mouse embryonic fibroblasts (“MEF”) cells harvested from Ercc1^−/− mouse embryos.

Ercc1^−/Δ mice = assay: Healthspan of progeroid Ercc1-/Δ mice treated with compound vs sibling given vehicle; assay type: in vivo, mouse
Excerpt: FIG. 7. Experimental system for determining the impact of a therapeutic compound on the healthspan of Ercc1^−/Δ mice with accelerated aging. Transgenic mice or mutant animals were born from heterozygous crossings. Only litters with two Ercc1^−/Δ mice were enrolled in the study so that siblings could be used to assess the effect of a therapeutic compound, XJB-5-131 vs. vehicle in a pair-wise comparison. Treatments were initiated before the mice became symptomatic. The age at onset of progeroid symptoms were measured biweekly by an investigator blinded to the treatment of the mice.
as §1

[2] = test system: Ercc1^−/cond; K14-Cre mice; assay: UV-induced photoaging / sunburn of skin, topical cream; assay type: in vivo, mouse
Experimental: FIG. 10A-D. (A) Effects of (photo)aging in Ercc1^−/Δ mice either treated with XJB-5-131 (80 μg emulsified in a topical cream) or cream only according to the protocol shown in FIG. 7. The duration of treatment of mice in this figure was daily for five days post-UV irradiation. (B) Compounds as disclosed herein protect skin from photoaging by improving keratin production. Skin of Ercc1^−/cond; K14-Cre mice (missing ERCC1-XPF expression only in the skin) were treated with 20 J/m2 (half of the minimal erythemal dose) five times per week for 10 weeks to induce photoaging of the skin. Immediately after UV exposure, XJB-5-131 was applied (80 μg in 50 μL of cream) using a cotton applicator. Twenty-four hours after the last treatment, mice were euthanized and skin harvested for histopathologic examination. Skin sections were immunostained for keratin (red), DNA to reveal nuclei (blue) and actin (green). (C) Compounds as disclosed herein protect skin from inflammation in response to ultraviolet radiation. Skin of Ercc 1^−/cond; K14-Cre mice (missing ERCC1-XPF expression only in the skin) were treated with 500 J/m2 (12.5× the minimal erythemal dose) to induce erythema. Immediately after UV exposure, XJB-5-131 was applied (80 μg in 50 μL of cream) using a cotton applicator. Twenty-four hours after treatment, mice were euthanized and skin harvested for histopathologic examination. Skin sections were immunostained for keratin (red), DNA to reveal nuclei (blue) and actin (green). The thickness of the epidermal layer (indicated by the white bracket) is less in mice treated with XJB-5-131 than in mice treated with cream alone. (D) Compounds as disclosed herein reduce epidermal atrophy. Old (>24 months) normal mice were shaved and their skin treated with JP4-039 (450 μg in 50 μL of cream) or vehicle (cream) only five times per week for 10 weeks. Twenty-four hours after the last treatment, mice were euthanized and skin harvested for histopathologic examination. Skin sections were stained for DNA to reveal nuclei (blue) and actin (green).
As a measure of the effect of XJB-5-131 on photoaging or sun-induced skin changes, treated and control Ercc1^−/cond. K 14-Cre mice, which are missing ERCC1 only in the skin, were shaved, treated with a depilatory, then irradiated with UV-B light to induce sunburn (500 J/m2, the […] erythemal dose). Subsequently, the mice were treated with XJB-5-131 (80 μg) emulsified in a cream daily for five days.

[3] = test system: MEF cells harvested from Ercc1^−/− mouse embryos; assay: SA-β galactosidase staining (cellular senescence) in MEF; assay type: cell-based; conditions: 500 nM in media, ambient oxygen, 48 hours; vs media only
Experimental: FIG. 12. SA-β galactosidase (a marker of cellular senescence) staining in mouse embryonic fibroblast (“MEF”) cells prepared from Ercc1^−/− mice, where the MEF cells were either treated with XJB-5-131 ([…]) or media alone continuously for 48 hours prior to fixing and staining the cells.
as §2

Ercc1^−/− primary MEF = assay: γH2AX immunostaining of oxidatively stressed primary MEF; assay type: cell-based, mouse; conditions: 20% oxygen
Experimental: FIG. 13A-B. γH2AX immunostaining of Ercc1^−/− primary MEF grown at 20% oxygen to induce oxidative stress. Phosphorylated H2AX (γH2AX is a marker of cellular senescence and DNA damage. The MEF cells were either treated with XJB-5-131 (A) or E71-58 (B), fewer cells stained positively for γH2AX.
as §2
Next, the abilities of these two compounds, as well as XJB-5-131 and JP4-039, each at a concentration of 1 μM, were tested for their ability to prevent cellular senescence in cell cultures prepared, and oxidatively stressed, as in the preceding paragraph. Treated as well as untreated cells were, after 48 hours, immunostained for γ-H2AX, a marker of DNA double-strand breaks as well as cellular senescence.

[4] = test system: MEF cells prepared from Ercc1^−/− mice; assay: Apoptosis in MEF cells; assay type: cell-based, mouse; conditions: 500 nM in media, 48 hours; vs media alone
Experimental: FIG. 14. Apoptosis in MEF cells prepared from Ercc1^−/− mice, where the MEF cells were either treated with XJB-5-131 (500 nM dissolved in media) or media alone continuously for 48 hours prior to fixing and staining the cells.
as §2

[5] = test system: primary MEF from Ercc1^−/− mouse embryos; assay: p16 immunofluorescence (irreversible cellular senescence) in MEF; assay type: cell-based; conditions: 1 μM, 48 hours, 20% oxygen; vs untreated cells
Experimental: FIG. 17. Levels of p16, a marker of irreversible cellular senescence, in MEF cells prepared from Ercc1^−/− mice, where the MEF cells were either treated with JP4-039 (10 μM dissolved in media) or media alone for 48 hours prior to fixing and immunostaining of cells.
To test the protective activity of JP4-039, cultures of primary MEF were prepared from Ercc1^−/− mouse embryos and grown under 20% oxygen (ambient air), which creates oxidative stress in these cells that are hypersensitive to the reactive oxygen species. The cells were then either treated with a concentration of 1 μM of XJB-5-131, JP4-039, JED-E71-37 or JED-E71-58, or left untreated, and then after 48 hours the level of p16, a marker of irreversible cellular senescence, was measured by immunofluorescence staining. […] Furthermore, in vivo, JP4-039 reversed epidermal atrophy, by increasing proliferation of keratinocytes (FIG. 10D). Thus JP4-039 was efficacious in vitro and in vivo for reducing/reversing age-related degenerative changes.

R6/2 mice = assay: Rotarod motor co-ordination in Huntington's disease model; assay type: in vivo, mouse; conditions: 2 mg/kg i.p. three times per week from 5 weeks of age; at 6 and 7 weeks of age; vs untreated mutant animals
Experimental: FIG. 19. XJB-5-131 preserved motor function in a mouse model of Huntington's disease. Five R6/2 mice, which model Huntington's disease, were treated three times per week with 2 mg/kg XJB-5-131 beginning at 5 weeks of life according to the scheme in FIG. 7. Motor function was assessed weekly by measuring the time animals were able to remain balanced on a rotarod, according to standard methods.
Huntington's disease is a fatal autosomal dominant neurodegenerative disease. The prevalence of Huntington's disease is four to seven in 100 000 and it typically develops in mid-life. The symptoms involve psychiatric, motor and cognitive disturbances, and weight loss. […] Mutant huntingtin forms insoluble aggregates that accumulate in the cytoplasm and nucleus of cells, disrupting neuron function. R6/2 mice express exon 1 of the human huntingtin gene, containing 150 CAG repeats. Consequently, the mice develop neurological symptoms that resemble many of those seen in Huntington's disease, including deficits of motor co-ordination, altered locomotor activity, impaired cognitive performance and seizures. Symptoms begin by week 3-4 and are progressive. […] Motor co-ordination was measured using a rotarod, after the mice were conditioned to the apparatus.

Solubility (statement) = assay type: physicochemical
Excerpt: Compounds as set forth herein may be administered in a suitable pharmaceutical carrier (e.g. sterile water, normal saline, phosphate buffered saline, etc.). Not by way of limitation, inhibitors may be administered as a solution, as a suspension, in solid form, in a sustained release formulation, in a topical cream formulation, etc. In particular non-limiting examples, an inhibitor may be incorporated into a microcapsule, nanoparticle or liposome.

[6] = acute or chronic photoaging, 80 μg in 50 μL of cream

| Structure (SMILES) | weight loss as a result of treatment [1] | overall aging score (relative age at onset of progeroid symptoms vs sibling on oil) (Ercc1^−/Δ mice; 2 mg/kg i.p. in sunflower seed oil, three times per week, 18-21 weeks) | onset of progeroid symptoms and aging pathologies (Ercc1^−/Δ mice; 2 mg/kg i.p. three times per week) | symptoms of accelerated aging marked with asterisk (dystonia, ataxia, muscle wasting, decreased spontaneous activity or lethargy), age at onset (Ercc1^−/Δ mice; FIG. 8, vs vehicle only) | neurodegeneration and muscle wasting in twin mice (Ercc1^−/Δ mice; FIG. 9A, three times per week from 5 weeks of age, vs sibling on vehicle) | general appearance of twin mice (Ercc1^−/Δ mice; FIG. 9A, vs sibling on vehicle) | glycosaminoglycan in intervertebral discs, more relative to control mice (Ercc1^−/Δ mice; FIG. 9B, vs sunflower seed oil) | neurodegeneration in brain/cerebellum (GFAP immunostaining) (Ercc1^−/Δ mice; FIG. 9C, vs siblings on vehicle only) | insulin-producing β-islet cells in pancreas (Ercc1^−/Δ mice; FIG. 9D, H&E sections) | thickness of the epidermal layer after UV ([2]; 500 J/m2, 80 μg in 50 μL of cream, 24 h, vs cream alone) | skin appearance after UV-B sunburn ([2]; 500 J/m2 UV-B, 80 μg in cream daily for five days, vs cream only) | inflammation of skin after UV [2, 6] | keratin in skin sections (immunofluorescence) [2, 6] | amount of SA-β galactosidase staining [3] | γ-H2AX immunostaining (prevention of cellular senescence) (Ercc1^−/− primary MEF; 1 μM, 48 hours, vs untreated) | γH2AX foci / cells staining positively for γH2AX (Ercc1^−/− primary MEF; FIG. 13, concentration not stated) | amount of apoptosis [4] | level of p16 [5] | motor co-ordination (time on rotarod) (R6/2 mice) | solubility (Solubility (statement)) |
| --- | --- | --- | --- | --- | --- | --- | --- | --- | --- | --- | --- | --- | --- | --- | --- | --- | --- | --- | --- | --- |
| CC1(C)CCCC(C)(C)N1[O] [TEMPO, 2,2,6,6-tetramethylpiperidine-N-oxyl, reference compound] | cause weight loss |  |  |  |  |  |  |  |  |  |  |  |  |  |  |  |  |  |  |  |
| CC(C)C[C@@H](/C=C/[C@H](Cc1ccccc1)C(=O)N1CCC[C@H]1C(=O)N[C@H](C(=O)N[C@@H](CCCNC(=O)OCc1ccccc1)C(=O)NC1CC(C)(C)N([O])C(C)(C)C1)C(C)C)NC(=O)OC(C)(C)C [XJB-5-131] | did not cause weight loss | significantly improved | delayed the onset | significantly delayed | reduced and less | improved | approximately 30% | significantly reduced; also recorded: Decreased | preserved; also recorded: Preservation | less | much more smooth and healthy | reduced | improved | notably less | less effective | reduce; also recorded: fewer | did not reduce | less effective | significantly better | sparingly soluble |
